Assay results: ChEMBL document CHEMBL1201862, “PubChem BioAssay data set” (2004)
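Dose response: 5 concentrations. Exposure: 48 h. Format: 96-well plates. Endpoint: linear interpolation; highest concentration if not reached. GI50: concentration for 50% inhibition of growth.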 Activity calls are given as the source filed them. Rule as the data show it: active = GI50 up to about 1.1 µM and inactive = higher.

Key:
Test in all cases: growth of human tumour cells (NCI), 48 h
SK-MEL-2 = tested on: SK-MEL-2
UO-31 = tested on: UO-31
SN12C = tested on: SN12C
SK-MEL-5 = tested on: SK-MEL-5
NCI-H23 = tested on: NCI-H23
CCRF-CEM = tested on: CCRF-CEM
HOP-92 = tested on: HOP-92
SF-295 = tested on: SF-295
LOX IMVI = tested on: LOX IMVI
M14 = tested on: M14
SNB-75 = tested on: SNB-75
UACC-62 = tested on: UACC-62
A498 = tested on: A498
EKVX = tested on: EKVX
OVCAR-4 = tested on: OVCAR-4
TK-10 = tested on: TK-10
ACHN = tested on: ACHN

| SMILES | GI50 (SK-MEL-2) | GI50 (UO-31) | GI50 (SN12C) | GI50 (SK-MEL-5) | GI50 (NCI-H23) | GI50 (CCRF-CEM) | GI50 (HOP-92) | GI50 (SF-295) | GI50 (LOX IMVI) | GI50 (M14) | GI50 (SNB-75) | GI50 (UACC-62) | GI50 (A498) | GI50 (EKVX) | GI50 (OVCAR-4) | GI50 (TK-10) | GI50 (ACHN) |
| --- | --- | --- | --- | --- | --- | --- | --- | --- | --- | --- | --- | --- | --- | --- | --- | --- | --- |
| O=C1OC2CCCC[C@@H]2C2C[C@]34CCCCC3[C@@H](C(=O)O4)C12 (some centres undefined) | > 100 µM (inactive) | > 100 µM (inactive) | > 100 µM (inactive) | > 100 µM (inactive) | > 100 µM (inactive) | > 100 µM (inactive) | > 100 µM (inactive) | > 100 µM (inactive) | > 100 µM (inactive) | > 100 µM (inactive) | > 100 µM (inactive) | > 100 µM (inactive) | > 100 µM (inactive) | > 100 µM (inactive) | > 100 µM (inactive) | > 100 µM (inactive) | > 100 µM (inactive) |
| CC(=O)OCC1OC(NC(=S)N/N=C2\CC(c3ccccc3)Oc3ccccc32)C(OC(C)=O)C(OC(C)=O)C1OC(C)=O (centres undefined) |  | > 100 µM (inactive) | > 100 µM (inactive) | > 100 µM (inactive) | > 100 µM (inactive) | > 100 µM (inactive) | > 100 µM (inactive) | > 100 µM (inactive) | > 100 µM (inactive) | > 100 µM (inactive) | > 100 µM (inactive) | > 100 µM (inactive) | > 100 µM (inactive) | > 100 µM (inactive) | > 100 µM (inactive) | > 100 µM (inactive) | > 100 µM (inactive) |
| O=C1OC(c2ccccc2)=N/C1=C/NC(Cc1ccc(O)cc1)C(=O)O (centres undefined) | > 100 µM (inactive) | > 100 µM (inactive) |  | > 100 µM (inactive) | > 100 µM (inactive) | > 100 µM (inactive) | > 100 µM (inactive) | > 100 µM (inactive) | > 100 µM (inactive) | > 100 µM (inactive) | > 100 µM (inactive) |  | > 100 µM (inactive) | > 100 µM (inactive) | > 100 µM (inactive) | > 100 µM (inactive) | > 100 µM (inactive) |
| O=C(c1ccc(Cl)cc1)N(C(=S)N1CCN(c2ccccc2)CC1)c1ccccc1 | > 100 µM (inactive) | > 100 µM (inactive) | > 100 µM (inactive) | > 100 µM (inactive) | > 100 µM (inactive) | > 100 µM (inactive) | > 100 µM (inactive) | > 100 µM (inactive) | > 100 µM (inactive) | > 100 µM (inactive) | > 100 µM (inactive) | > 100 µM (inactive) |  |  | > 100 µM (inactive) | > 100 µM (inactive) | > 100 µM (inactive) |
| O=C(CC(=O)C(=O)CC(=O)OCc1ccccc1)OCc1ccccc1 | > 100 µM (inactive) | 27.3 µM (inactive) | 57.1 µM (inactive) | 66.1 µM (inactive) | 53.2 µM (inactive) | 49.2 µM (inactive) | 58.1 µM (inactive) |  |  | > 100 µM (inactive) | 61.5 µM (inactive) | 84.9 µM (inactive) | > 100 µM (inactive) | > 100 µM (inactive) | 50.5 µM (inactive) | > 100 µM (inactive) |  |
| CC(Cl)(/C=C/Cl)C(Cl)/C=C/C(Cl)(CCl)CBr (centres undefined) | 3.82 µM (inactive) | 14.5 µM (inactive) | 3.18 µM (inactive) | 7.52 µM (inactive) | 1.88 µM (inactive) | 0.305 µM (active) | 2.07 µM (inactive) | 6.53 µM (inactive) | 1.66 µM (inactive) | 2.54 µM (inactive) | 3.17 µM (inactive) | 1.68 µM (inactive) | 13.5 µM (inactive) | 31.8 µM (inactive) | 3.05 µM (inactive) | 7.45 µM (inactive) | 5.51 µM (inactive) |
| O=C(CC(=O)N1N=C(N2c3ccccc3Sc3ccccc32)CC1c1ccccc1)Nc1ccc(Cl)cc1 (centres undefined) |  | > 100 µM (inactive) | > 100 µM (inactive) | > 100 µM (inactive) | > 100 µM (inactive) | > 10 µM (inactive) | > 100 µM (inactive) | > 100 µM (inactive) | > 100 µM (inactive) | > 100 µM (inactive) | > 100 µM (inactive) | > 100 µM (inactive) | > 100 µM (inactive) | > 100 µM (inactive) | > 100 µM (inactive) | > 100 µM (inactive) | > 100 µM (inactive) |
| O=C(Nc1nc2ncn(CC(COc3ccccc3)OC(=O)c3ccccc3)c2c(=O)[nH]1)c1ccccc1 (centres undefined) | > 100 µM (inactive) | > 100 µM (inactive) | > 100 µM (inactive) | > 100 µM (inactive) |  |  |  | 48 µM (inactive) | > 100 µM (inactive) | > 100 µM (inactive) | > 100 µM (inactive) | > 100 µM (inactive) | > 100 µM (inactive) | > 100 µM (inactive) | > 100 µM (inactive) |  | > 100 µM (inactive) |
| c1ccc2c(c1)oc1ccc3nsnc3c12 | > 100 µM (inactive) | > 100 µM (inactive) |  | > 100 µM (inactive) | > 100 µM (inactive) | > 100 µM (inactive) | 45.7 µM (inactive) | > 100 µM (inactive) | > 10 µM (inactive) | > 100 µM (inactive) | 53.3 µM (inactive) | > 100 µM (inactive) | 63.4 µM (inactive) | 31.3 µM (inactive) | > 100 µM (inactive) | > 10 µM (inactive) | > 100 µM (inactive) |
| COc1cc(Br)c(/C=N\c2cccc3cc(OC)c(OC)cc23)cc1OC |  | 27.9 µM (inactive) | 40.6 µM (inactive) | 36.1 µM (inactive) | 39.7 µM (inactive) | 17.8 µM (inactive) | 28.2 µM (inactive) | 25.9 µM (inactive) | 35.3 µM (inactive) | 30 µM (inactive) | 16.8 µM (inactive) | 26 µM (inactive) |  | 50.2 µM (inactive) | 91.8 µM (inactive) | 83.2 µM (inactive) | 51.5 µM (inactive) |
| C[N+]1(C)C/C(=C\c2ccccc2)C(=O)/C(=C/c2ccccc2)C1 |  | > 100 µM (inactive) | 18.5 µM (inactive) | 72.8 µM (inactive) | > 100 µM (inactive) | 49 µM (inactive) | > 100 µM (inactive) | > 100 µM (inactive) |  | > 100 µM (inactive) | > 100 µM (inactive) |  | > 100 µM (inactive) | < 0.01 µM (active) | > 100 µM (inactive) | > 100 µM (inactive) | > 100 µM (inactive) |
| O=C(O)c1oc2ccc([N+](=O)[O-])c3c2c1CCC3 | > 100 µM (inactive) | > 100 µM (inactive) | > 100 µM (inactive) |  | > 100 µM (inactive) |  | 27.7 µM (inactive) | > 100 µM (inactive) | > 100 µM (inactive) | > 100 µM (inactive) | 67.6 µM (inactive) |  |  | > 100 µM (inactive) | > 100 µM (inactive) | > 100 µM (inactive) | > 100 µM (inactive) |
| COC(=O)C1(C(C)C)CCc2c(OC)ccc(OC)c2C1=O (centres undefined) | > 100 µM (inactive) | > 100 µM (inactive) | > 100 µM (inactive) | > 100 µM (inactive) |  | > 100 µM (inactive) |  | > 100 µM (inactive) | > 100 µM (inactive) | > 100 µM (inactive) |  | 79.8 µM (inactive) | > 100 µM (inactive) | 75.2 µM (inactive) | 96.6 µM (inactive) | > 100 µM (inactive) | > 100 µM (inactive) |
| NCCNCCNCc1c2ccccc2c(CNCCNCCN)c2ccccc12 | > 100 µM (inactive) | > 100 µM (inactive) | 58.2 µM (inactive) | > 100 µM (inactive) | > 100 µM (inactive) | 78.5 µM (inactive) | 22.3 µM (inactive) | 41.4 µM (inactive) | 70.6 µM (inactive) | > 100 µM (inactive) |  | 34 µM (inactive) |  | > 100 µM (inactive) | 41.6 µM (inactive) | > 100 µM (inactive) | > 100 µM (inactive) |
| c1ccc(C2CC(c3ccc4ccccc4c3)=Nc3ccccc3S2)cc1 (centres undefined) | 18.1 µM (inactive) | 12.5 µM (inactive) | 16.7 µM (inactive) | 18.9 µM (inactive) | 14.8 µM (inactive) | 26.1 µM (inactive) |  | 17.9 µM (inactive) | 15.7 µM (inactive) | 15.8 µM (inactive) | 15.6 µM (inactive) | 16.9 µM (inactive) | 17.3 µM (inactive) | 23.2 µM (inactive) | 19.5 µM (inactive) | 22.3 µM (inactive) | 16.7 µM (inactive) |
| CC(=O)O/C(C)=C\C(=O)O/N=C(\N)c1ccc(C)cc1 | 28.6 µM (inactive) | 61.1 µM (inactive) | 22 µM (inactive) | 22.3 µM (inactive) | 22.2 µM (inactive) | 17.3 µM (inactive) | 33.7 µM (inactive) | 35.2 µM (inactive) | 34.4 µM (inactive) | 28.4 µM (inactive) | 19.2 µM (inactive) | 22.7 µM (inactive) | 62.7 µM (inactive) | 92.3 µM (inactive) | 25.8 µM (inactive) | 63.8 µM (inactive) | 33 µM (inactive) |
| CSC1(C)CC2C(CC1N1CCCCC1)C2(C)C (centres undefined) | > 100 µM (inactive) | > 100 µM (inactive) | > 100 µM (inactive) |  | > 100 µM (inactive) | > 100 µM (inactive) | > 100 µM (inactive) | > 100 µM (inactive) |  | > 100 µM (inactive) | > 100 µM (inactive) |  |  |  | > 100 µM (inactive) | > 100 µM (inactive) | > 100 µM (inactive) |
| COc1cc2c3c(c1OC)C1(C=CC(=O)C=C1)C[C@H]3N(C)CC2 [PRONUCIFERINE] | > 100 µM (inactive) | > 100 µM (inactive) | > 100 µM (inactive) | > 100 µM (inactive) | > 100 µM (inactive) |  | > 100 µM (inactive) | > 100 µM (inactive) | > 100 µM (inactive) | > 100 µM (inactive) | > 100 µM (inactive) | > 100 µM (inactive) |  | > 100 µM (inactive) |  | > 100 µM (inactive) | > 100 µM (inactive) |
